Converted amounts (≈) assume the structure as drawn. The source made the active and inactive calls. The calls are words filed in the database; no cut-off is given here.
Experiments:
[1] = test system: Pseudomonas aeruginosa; test: Antibacterial activity against Pseudomonas aeruginosa PA262 assessed as inhibition of visible bacterial growth by CLSI based broth-microdilution method; assay type: functional
[2] = test system: Pseudomonas aeruginosa; test: Antibacterial activity against Pseudomonas aeruginosa PA264 assessed as inhibition of visible bacterial growth by CLSI based broth-microdilution method; assay type: functional
[3] = test system: Pseudomonas aeruginosa; test: Antibacterial activity against Pseudomonas aeruginosa PA259 assessed as inhibition of visible bacterial growth by CLSI based broth-microdilution method; assay type: functional
[4] = test system: Pseudomonas aeruginosa; test: Antibacterial activity against Pseudomonas aeruginosa PA101243 assessed as inhibition of visible bacterial growth by CLSI based broth-microdilution method; assay type: functional
[5] = test system: Pseudomonas aeruginosa; test: Antibacterial activity against Pseudomonas aeruginosa PA200 assessed as inhibition of visible bacterial growth by CLSI based broth-microdilution method; assay type: functional
[6] = test system: Pseudomonas aeruginosa; test: Antibacterial activity against Pseudomonas aeruginosa PA100036 assessed as inhibition of visible bacterial growth by CLSI based broth-microdilution method; assay type: functional
[7] = test system: Pseudomonas aeruginosa; test: Antibacterial activity against Pseudomonas aeruginosa PA095 assessed as inhibition of visible bacterial growth by CLSI based broth-microdilution method; assay type: functional
[8] = test system: Pseudomonas aeruginosa; test: Antibacterial activity against Pseudomonas aeruginosa PA114228 assessed as inhibition of visible bacterial growth by CLSI based broth-microdilution method; assay type: functional
[9] = test system: Pseudomonas aeruginosa; test: Antibacterial activity against Pseudomonas aeruginosa PAO1 assessed as inhibition of visible bacterial growth by CLSI based broth-microdilution method; assay type: functional
[10] = test system: Escherichia coli; test: Antibacterial activity against Escherichia coli ATCC 25922 assessed as inhibition of visible bacterial growth by CLSI based broth-microdilution method; assay type: functional
[11] = test system: HEK293; test: Cytotoxicity against HEK293 cells assessed as reduction in cell viability at 162 uM; assay type: toxicity, cell-based; details: human, hek293, 162 µM
[12] = test system: Pseudomonas aeruginosa; test: Synergistic antibacterial activity against Pseudomonas aeruginosa PAO1 assessed as fold change in minocycline MIC by checkerboard analysis relative to minocycline alone; assay type: functional
[13] = test system: HepG2; test: Cytotoxicity against human HepG2 cells assessed as inhibition of cell vitality at 162 uM; assay type: functional; parameters: scale not given: the % may be the effect or the level left
[14] = test system: Acinetobacter baumannii; test: Antibacterial activity against Acinetobacter baumannii ATCC 17978 assessed as inhibition of visible bacterial growth by CLSI based broth-microdilution method; assay type: functional
[15] = test system: Pseudomonas aeruginosa; test: Synergistic antibacterial activity against Pseudomonas aeruginosa PAO1 assessed as fold change in doxycycline MIC by checkerboard analysis relative to doxycycline alone; assay type: functional
[16] = test system: HepG2; test: Cytotoxicity against human HepG2 cells assessed as reduction in cell viability at 400 uM; assay type: functional, cell-based
[17] = test system: Pseudomonas aeruginosa; test: Synergistic antibacterial activity against Pseudomonas aeruginosa PAO1 assessed as fold change in tigecycline MIC by checkerboard analysis relative to Tigecycline alone; assay type: functional
[18] = test system: HEK293; test: Cytotoxicity against HEK293 cells assessed as reduction in cell viability at 7 uM; assay type: toxicity, cell-based; details: human, hek293, 7 µM
[19] = test system: HepG2; test: Cytotoxicity against human HepG2 cells assessed as reduction in cell viability; assay type: functional
[20] = test system: Pseudomonas aeruginosa; test: Synergistic antibacterial activity against Pseudomonas aeruginosa PAO1 assessed as fold change in eravacycline MIC by checkerboard analysis relative to eravacycline alone; assay type: functional

Structure (SMILES) | MIC [1] [µg/mL] | MIC [2] [µg/mL] | MIC [3] [µg/mL] | MIC [4] [µg/mL] | MIC [5] [µg/mL] | MIC [6] [µg/mL] | MIC [7] [µg/mL] | MIC [8] [µg/mL] | MIC [9] [µg/mL] | MIC [10] [µg/mL] | Activity [11] [%] | fold change (FC) [12] | Activity [13] [%] | MIC [14] [µg/mL] | fold change (FC) [15] | Activity [16] | fold change (FC) [17] | Activity [18] | Activity [19] [%] | fold change (FC) [20]
CN(C)c1cc(NC(=O)CNC(C)(C)C)c(O)c2c1C[C@H]1C[C@H]3[C@H](N(C)C)C(O)=C(C(N)=O)C(=O)[C@@]3(O)C(O)=C1C2=O [TIGECYCLINE] | 64 (≈ 109 µM) | 32 (≈ 54.6 µM) | 32 (≈ 54.6 µM) | 8 (≈ 13.7 µM) | 1 (≈ 1.71 µM) | 64 (≈ 109 µM) | 32 (≈ 54.6 µM) | 64 (≈ 109 µM) |  |  |  |  |  |  |  |  |  |  |  | 
Cl.Cl.Cl.Cl.Cl.Cl.NC[C@H]1O[C@H](O[C@H]2[C@H](OCc3ccc(-c4ccc(CNC(=O)c5cn(C6CC6)c6cc(N7CCNCC7)c(F)cc6c5=O)cc4)cc3)[C@@H](O[C@H]3O[C@H](CO)[C@@H](O)[C@H](N)[C@H]3O)[C@H](N)C[C@@H]2N)[C@H](N)C[C@@H]1O |  |  |  |  |  |  |  |  | > 120 | > 128 | 27 | 16 | 40 | > 128 | 16 | Active | 16 | Non-toxic | 88 | 16
CN(C)[C@@H]1C(O)=C(C(N)=O)C(=O)[C@@]2(O)C(O)=C3C(=O)c4c(O)c(NC(=O)CN5CCCC5)cc(F)c4C[C@H]3C[C@@H]12 [ERAVACYCLINE] | 64 (≈ 115 µM) | 32 (≈ 57.3 µM) | 32 (≈ 57.3 µM) | 8 (≈ 14.3 µM) | 0.5 (≈ 0.895 µM) | 32 (≈ 57.3 µM) | 32 (≈ 57.3 µM) | 16 (≈ 28.6 µM) |  |  |  |  |  |  |  |  |  |  |  | 
Cl.Cl.Cl.Cl.Cl.Cl.NC[C@H]1O[C@H](O[C@H]2[C@H](OCCOCCOCCOCCNC(=O)c3cn(C4CC4)c4cc(N5CCNCC5)c(F)cc4c3=O)[C@@H](O[C@H]3O[C@H](CO)[C@@H](O)[C@H](N)[C@H]3O)[C@H](N)C[C@@H]2N)[C@H](N)C[C@@H]1O |  |  |  |  |  |  |  |  | > 120 | > 128 |  |  | 60 | > 128 |  |  |  | Non-toxic | 60 | 
CN(C)c1ccc(O)c2c1C[C@H]1C[C@H]3[C@H](N(C)C)C(O)=C(C(N)=O)C(=O)[C@@]3(O)C(O)=C1C2=O [MINOCYCLINE] | 256 (≈ 560 µM) | 128 (≈ 280 µM) | 128 (≈ 280 µM) | 8 (≈ 17.5 µM) | 0.5 (≈ 1.09 µM) | 128 (≈ 280 µM) | 64 (≈ 140 µM) | 256 (≈ 560 µM) |  |  |  |  |  |  |  |  |  |  |  | 
CCCCCCCCCCCCNC(=O)c1cn(C2CC2)c2cc(N3CCNCC3)c(F)cc2c1=O.Cl |  |  |  |  |  |  |  |  | > 120 | > 128 |  |  |  | > 128 |  |  |  |  |  | 
C[C@H]1c2cccc(O)c2C(=O)C2=C(O)[C@]3(O)C(=O)C(C(N)=O)=C(O)[C@@H](N(C)C)[C@@H]3[C@@H](O)[C@@H]21 [DOXYCYCLINE ANHYDROUS] | > 512 | > 64 | 64 (≈ 144 µM) | 16 (≈ 36 µM) | 1 (≈ 2.25 µM) | > 128 | 64 (≈ 144 µM) | 64 (≈ 144 µM) |  |  |  |  |  |  |  |  |  |  |  | 
CC(=O)NCCCCCCCCCCCCO[C@@H]1[C@@H](O[C@H]2O[C@H](CO)[C@@H](O)[C@H](N)[C@H]2O)[C@H](N)C[C@H](N)[C@H]1O[C@H]1O[C@H](CN)[C@@H](O)C[C@H]1N.Cl.Cl.Cl.Cl.Cl |  |  |  |  |  |  |  |  | > 120 | > 128 |  | 4 |  | > 128 | 8 |  | 1 |  |  | 
Cl.Cl.Cl.Cl.Cl.Cl.NC[C@H]1O[C@H](O[C@H]2[C@H](OCCCCCCCCNC(=O)c3cn(C4CC4)c4cc(N5CCNCC5)c(F)cc4c3=O)[C@@H](O[C@H]3O[C@H](CO)[C@@H](O)[C@H](N)[C@H]3O)[C@H](N)C[C@@H]2N)[C@H](N)C[C@@H]1O |  |  |  |  |  |  |  |  | > 120 | > 128 |  | 4 | 55 | > 128 | 4 |  | 4 | Non-toxic | 69 | 4
NC[C@H]1O[C@H](O[C@H]2[C@H](O)[C@@H](O[C@H]3O[C@H](CO)[C@@H](O)[C@H](N)[C@H]3O)[C@H](N)C[C@@H]2N)[C@H](N)C[C@@H]1O [TOBRAMYCIN] |  |  |  |  |  |  |  |  | 0.5 (≈ 1.07 µM) | 2 (≈ 4.28 µM) |  |  |  | 0.5 (≈ 1.07 µM) |  |  |  |  |  | 
